# Where a SMILES comes first, the peptide text is derived from it. Bridges are numbered along the chain shown (N, C = ends). [ ]: non-standard residue; d: D form. Dab = NCC[C@H](N)C(=O)O
# Biological target: T1, FPR1 (Homo sapiens, UniProt P21462)
# T1 construct: host or cells: CHO (PathHunter CHO-FPR1 β-arrestin cells)
# T1 sequence (P21462 1-350): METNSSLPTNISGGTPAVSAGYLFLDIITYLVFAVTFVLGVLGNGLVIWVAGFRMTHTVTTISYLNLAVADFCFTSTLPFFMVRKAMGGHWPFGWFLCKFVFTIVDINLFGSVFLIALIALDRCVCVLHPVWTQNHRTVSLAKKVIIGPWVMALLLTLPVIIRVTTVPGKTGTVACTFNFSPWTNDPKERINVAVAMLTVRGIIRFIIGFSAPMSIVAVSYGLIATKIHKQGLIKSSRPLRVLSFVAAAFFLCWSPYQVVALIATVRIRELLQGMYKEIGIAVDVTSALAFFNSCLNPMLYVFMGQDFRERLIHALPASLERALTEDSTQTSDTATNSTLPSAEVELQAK
# Assay: FPR1 β-arrestin recruitment assay (PathHunter CHO-FPR1, antagonistic mode)
# Format: cell-based
# Details: CHO FPR1 β-arrestin cells; antagonistic assay vs reference agonist fMLF at its EC80; 60 min preincubation
# Method: 2.2 FPR1 β-Arrestin Recruitment Assay
# The PathHunter CHO—FPR1 (DiscoverX) assay was performed according to the manufacturer's protocol. In brief, CHO FPR1 β-arrestin cells were seeded at a density of 9000 cells per well in 20 μl of Ham's F12 medium (Invitrogen) in black 384-well culture plates and incubated overnight at 37° C. in a humidified atmosphere with 5% CO2. The next day, serial dilutions of the β-hairpin peptidomimetics of this invention have been prepared in DMSO and subsequently diluted in HBSS buffer supplemented with 20 mM Hepes and 0.1% BSA.
# For antagonistic assay, 5 μl of compound solution or buffer was added to the cells with a final DMSO concentration of 0.5% (v/v). The plate was incubated for 60 min at 37° C. with 5% CO2 before addition of […] of the reference agonist fMLF peptide (Sigma-Aldrich) at its EC80 concentration. After 90 min of incubation at 37° C. with 5% CO2, 15 μl of beta-Glo detection reagent (Promega) were added. Reaction was developed for 20 min at room temperature and chemiluminescence was measured with a Victor2V (Perkin Elmer) luminescence reader.
row,IC50,Structure (SMILES)
1,0.177 ± 0.028 µM,"CC[C@H](C)[C@@H]1NC(=O)[C@H]([C@@H](C)O)NC(=O)[C@H](Cc2c[nH]c3ccccc23)NC(=O)[C@H]2CCCN2C(=O)CNC(=O)[C@H](Cc2c[nH]cn2)NC(=O)[C@@H]2CSSC[C@H](NC1=O)C(=O)N[C@@H](Cc1ccc(O)cc1)C(=O)N[C@@H](CCC(=O)O)C(=O)N[C@@H](CCCCN)C(=O)N1CCC[C@@H]1C(=O)N1CCC[C@H]1C(=O)N[C@@H](CC(=O)O)C(=O)N[C@@H](Cc1c[nH]cn1)C(=O)N[C@@H](CCCCN)C(=O)N2 [compound 66, cyclo(-Asp-His-Lys-Cys-His-Gly-^DPro-Trp-Thr-Ile-Cys-Tyr-Glu-Lys-^DPro-Pro-)] (cyclo(DHKCHG[dP]WTICYEK[dP]P); disulfide 4-11)"
2,0.124 ± 0.01 µM,"CC[C@H](C)[C@@H]1NC(=O)[C@H]([C@@H](C)O)NC(=O)[C@H](Cc2c[nH]c3ccccc23)NC(=O)[C@H]2CCCN2C(=O)CNC(=O)[C@H](Cc2c[nH]cn2)NC(=O)[C@@H]2CSSC[C@H](NC1=O)C(=O)N[C@@H](Cc1ccc(O)cc1)C(=O)N[C@@H](CCC(=O)O)C(=O)N[C@@H](CCCCN)C(=O)N[C@H](C)C(=O)N[C@@H](CCC(=O)O)C(=O)N[C@@H](Cc1ccc(O)cc1)C(=O)N[C@@H](Cc1c[nH]cn1)C(=O)N[C@@H](CCCCN)C(=O)N2 [compound 6, cyclo(-Tyr-His-Lys-Cys-His-Gly-^DPro-Trp-Thr-Ile-Cys-Tyr-Glu-Lys-^DAla-Glu-)] (cyclo(YHKCHG[dP]WTICYEK[dA]E); disulfide 4-11)"
3,0.077 ± 0.004 µM,"CC[C@H](C)[C@@H]1NC(=O)[C@H]([C@@H](C)O)NC(=O)[C@H](Cc2c[nH]c3ccccc23)NC(=O)[C@@H](C)NC(=O)CNC(=O)[C@H](Cc2c[nH]cn2)NC(=O)[C@@H]2CSSC[C@H](NC1=O)C(=O)N[C@@H](Cc1ccc(O)cc1)C(=O)N[C@@H](CCC(=O)O)C(=O)N[C@@H](CCCCN)C(=O)N1CCC[C@@H]1C(=O)N1CCC[C@H]1C(=O)N[C@@H](Cc1ccc(O)cc1)C(=O)N[C@@H](Cc1c[nH]cn1)C(=O)N[C@@H](CCCCN)C(=O)N2 [compound 71, cyclo(-Tyr-His-Lys-Cys-His-Gly-^DAla-Trp-Thr-Ile-Cys-Tyr-Glu-Lys-^DPro-Pro-)] (cyclo(YHKCHG[dA]WTICYEK[dP]P); disulfide 4-11)"
4,0.126 ± 0.078 µM,"CC[C@H](C)[C@@H]1NC(=O)[C@H]([C@@H](C)O)NC(=O)[C@H](Cc2c[nH]c3ccccc23)NC(=O)[C@H]2CCCN2C(=O)CNC(=O)[C@H](Cc2c[nH]c3ccccc23)NC(=O)[C@@H]2CSSC[C@H](NC1=O)C(=O)N[C@@H](Cc1ccc(O)cc1)C(=O)N[C@@H](CCC(=O)O)C(=O)N[C@@H](CCCCN)C(=O)N[C@H](C)C(=O)N1CCC[C@H]1C(=O)N[C@@H](Cc1ccc(O)cc1)C(=O)N[C@@H](Cc1c[nH]cn1)C(=O)N[C@@H](CCCCN)C(=O)N2 [compound 42, cyclo(-Tyr-His-Lys-Cys-Trp-Gly-^DPro-Trp-Thr-Ile-Cys-Tyr-Glu-Lys-^DAla-Pro-)] (cyclo(YHKCWG[dP]WTICYEK[dA]P); disulfide 4-11)"
5,0.054 ± 0.021 µM,"CC[C@H](C)[C@@H]1NC(=O)[C@H]([C@@H](C)O)NC(=O)[C@H](Cc2c[nH]c3ccccc23)NC(=O)[C@H]2CCCN2C(=O)CNC(=O)[C@H](Cc2c[nH]c3ccccc23)NC(=O)[C@@H]2CSSC[C@H](NC1=O)C(=O)N[C@@H](Cc1ccc(O)cc1)C(=O)N[C@@H](CCC(=O)O)C(=O)N[C@@H](CCCCN)C(=O)N1CCC[C@@H]1C(=O)N1CCC[C@H]1C(=O)N[C@@H](Cc1ccc(O)cc1)C(=O)N[C@@H](Cc1c[nH]cn1)C(=O)N[C@@H](CCCCN)C(=O)N2 [compound 51, cyclo(-Tyr-His-Lys-Cys-Trp-Gly-^DPro-Trp-Thr-Ile-Cys-Tyr-Glu-Lys-^DPro-Pro-)] (cyclo(YHKCWG[dP]WTICYEK[dP]P); disulfide 4-11)"
6,0.685 ± 0.068 µM,"CC[C@H](C)[C@@H]1NC(=O)[C@H]([C@@H](C)O)NC(=O)[C@H](Cc2c[nH]c3ccccc23)NC(=O)[C@H]2CCCN2C(=O)CNC(=O)[C@H](Cc2c[nH]c3ccccc23)NC(=O)[C@@H]2CSSC[C@H](NC1=O)C(=O)N[C@@H]([C@@H](C)O)C(=O)N[C@@H](CCC(N)=O)C(=O)N[C@@H](CCCCN)C(=O)N1CCC[C@@H]1C(=O)N1CCC[C@H]1C(=O)N[C@@H](Cc1ccc(O)cc1)C(=O)N[C@@H](Cc1c[nH]cn1)C(=O)N[C@@H](C)C(=O)N2 [compound 34, cyclo(-Tyr-His-Ala-Cys-Trp-Gly-^DPro-Trp-Thr-Ile-Cys-Thr-Gln-Lys-^DPro-Pro-)] (cyclo(YHACWG[dP]WTICTQK[dP]P); disulfide 4-11)"

# Further lines, the molecule ahead of its results:
row,Structure (SMILES),IC50
1,"CC[C@H](C)[C@@H]1NC(=O)[C@H]([C@@H](C)O)NC(=O)[C@H](Cc2c[nH]c3ccccc23)NC(=O)[C@H]2CCCN2C(=O)CNC(=O)[C@H](Cc2c[nH]c3ccccc23)NC(=O)[C@@H]2CSSC[C@H](NC1=O)C(=O)N[C@@H](Cc1ccc(O)cc1)C(=O)N[C@@H](CCC(N)=O)C(=O)N[C@@H](CCCCN)C(=O)N1CCC[C@@H]1C(=O)N1CCC[C@H]1C(=O)N[C@@H](Cc1ccc(O)cc1)C(=O)N[C@@H](Cc1c[nH]cn1)C(=O)N[C@@H](C)C(=O)N2 [Ex. 40, cyclo(-Tyr-His-Ala-Cys-Trp-Gly-^DPro-Trp-Thr-Ile-Cys-Tyr-Gln-Lys-^DPro-Pro-)] (cyclo(YHACWG[dP]WTICYQK[dP]P); disulfide 4-11)",0.096 ± 0.03 µM
2,"CC[C@H](C)[C@@H]1NC(=O)[C@H]([C@@H](C)O)NC(=O)[C@H](Cc2c[nH]c3ccccc23)NC(=O)[C@H]2CCCN2C(=O)CNC(=O)[C@H](Cc2c[nH]cn2)NC(=O)[C@@H]2CSSC[C@H](NC1=O)C(=O)N[C@@H](Cc1ccc(O)cc1)C(=O)N[C@@H](CCC(=O)O)C(=O)N[C@@H](CCCCN)C(=O)N1CCC[C@@H]1C(=O)N[C@@H](CCN)C(=O)N[C@@H](Cc1ccc(O)cc1)C(=O)N[C@@H](Cc1c[nH]cn1)C(=O)N[C@@H](CCCCN)C(=O)N2 [Ex. 89, cyclo(-Tyr-His-Lys-Cys-His-Gly-^DPro-Trp-Thr-Ile-Cys-Tyr-Glu-Lys-^DPro-Dab-)] (cyclo(YHKCHG[dP]WTICYEK[dP][Dab]); disulfide 4-11)",0.189 ± 0.065 µM
3,"CC[C@H](C)[C@@H]1NC(=O)[C@H]([C@@H](C)O)NC(=O)[C@H](Cc2c[nH]c3ccccc23)NC(=O)[C@H]2CCCN2C(=O)CNC(=O)[C@H](Cc2c[nH]cn2)NC(=O)[C@@H]2CSSC[C@H](NC1=O)C(=O)N[C@@H](Cc1ccc(O)cc1)C(=O)N[C@@H](CCC(=O)O)C(=O)N[C@@H](CCCCN)C(=O)N[C@H](CCCCN)C(=O)N[C@@H](CCC(=O)O)C(=O)N[C@@H](Cc1ccc(O)cc1)C(=O)N[C@@H](Cc1c[nH]cn1)C(=O)N[C@@H](CCCCN)C(=O)N2 [compound 5, cyclo(-Tyr-His-Lys-Cys-His-Gly-^DPro-Trp-Thr-Ile-Cys-Tyr-Glu-Lys-^DLys-Glu-)] (cyclo(YHKCHG[dP]WTICYEK[dK]E); disulfide 4-11)",0.124 ± 0.067 µM
4,"CC[C@H](C)[C@@H]1NC(=O)[C@H]([C@@H](C)O)NC(=O)[C@H](Cc2c[nH]c3ccccc23)NC(=O)[C@@H](C)NC(=O)CNC(=O)[C@H](Cc2c[nH]cn2)NC(=O)[C@@H]2CSSC[C@H](NC1=O)C(=O)N[C@@H](Cc1ccc(O)cc1)C(=O)N[C@@H](CCC(=O)O)C(=O)N[C@@H](CCCCN)C(=O)N1CCC[C@@H]1C(=O)N[C@@H](CCC(=O)O)C(=O)N[C@@H](Cc1ccc(O)cc1)C(=O)N[C@@H](Cc1c[nH]cn1)C(=O)N[C@@H](CCCCN)C(=O)N2 [Ex. 4, cyclo(-Tyr-His-Lys-Cys-His-Gly-^DAla-Trp-Thr-Ile-Cys-Tyr-Glu-Lys-^DPro-Glu-)] (cyclo(YHKCHG[dA]WTICYEK[dP]E); disulfide 4-11)",0.077 ± 0.022 µM
